Patent US20200017495A1, “NOVEL HETEROCYCLIC COMPOUNDS AND THEIR USE IN PREVENTING OR TREATING BACTERIAL INFECTIONS” (priority 2017, published 2020)

Assays:
[1] = system: Serratia marcescens (SMA) isolates; experiment: MIC of compounds alone and combined with antibacterials, broth microdilution (CLSI); type: cell-based
Experimental: (§1) Method 2: MIC of Compounds Alone and Combined with Antibacterials Against Bacterial Isolates
(§2) Compounds of the present invention were assessed against genotyped bacterial strains (Table 3, 4) alone or in combination with an antibacterial (Table 2). […] Log phase bacterial suspensions were adjusted to a final density of 5.10^5 CFU/mL in cation-adjusted Mueller-Hinton broth (ca-MHB; Becton-Dickinson and Company) and added to each well (98 μL). Microplates were incubated for 16-20 h at 35° C. in ambient air. The MIC of the compounds was defined as the lowest concentration of said compounds that prevented bacterial growth as read by visual inspection. The MIC of ATB at each compound concentration was defined as the lowest concentration of ATB that prevented bacterial growth as read by visual inspection.

[2] = system: Citrobacter freundii (CFR) isolates; experiment: as above; type: cell-based
Experimental: as §1, §2

CC(C)(O/N=C(\C(=O)N[C@@H]1C(=O)N2C(C(=O)[O-])=C(C[n+]3ccccc3)CS[C@H]12)c1csc(N)n1)C(=O)O [CAZ, Ceftazidime]
MIC ATB in combination ([1]; SMA UFR142, AF3 @ 8 μg/mL): 0.5 mg/L
MIC ATB in combination ([1]; SMA UFR143, AF2 @ 8 μg/mL): <=0.25 μg/mL
MIC ATB in combination ([1]; SMA UFR143, AF3 @ 8 μg/mL): <=0.25 μg/mL
MIC ATB in combination ([1]; SMA UFR239, AF2 @ 8 μg/mL): 4 mg/L
MIC ATB in combination ([1]; SMA UFR239, AF3 @ 8 μg/mL): 0.5 mg/L
MIC ([1]; strain SMA UFR30, genotype OXA-405): 8 mg/L
MIC ([1]; strain SMA UFR134, genotype TEM-1, BES-1): 8 mg/L
MIC ([1]; strain SMA UFR135, genotype TEM-1, KPC-2): 32 mg/L
MIC ([1]; strain SMA UFR136, genotype TEM-1, SHV-12, KPC-2): >256 mg/L
MIC ([1]; strain SMA UFR137, genotype SME-1): 0.5 mg/L
MIC ([1]; strain SMA UFR138, genotype SME-1): <=0.25 μg/mL
MIC ([1]; strain SMA UFR139, genotype SME-2): <=0.25 μg/mL
MIC ([1]; strain SMA UFR140, genotype IMP-1): >128 mg/L
MIC ATB in combination ([1]; strain SMA UFR140, with AF2 @ 8 μg/mL): >128 mg/L
MIC ATB in combination ([1]; strain SMA UFR140, with AF3 @ 8 μg/mL): >128 mg/L
MIC ([1]; strain SMA UFR141, genotype OXA-48): 1 mg/L
MIC ([1]; strain SMA UFR142, genotype OXA-48): 0.5 mg/L
MIC ([1]; strain SMA UFR143, genotype CTX-M-15, OXA-1, OXA-48): 64 mg/L
MIC ([1]; strain SMA UFR238, genotype OXA-48): 0.5 mg/L
MIC ATB in combination ([1]; strain SMA UFR238, with AF2 @ 8 μg/mL): 0.5 mg/L
MIC ATB in combination ([1]; strain SMA UFR238, with AF3 @ 8 μg/mL): <=0.25 μg/mL
MIC ([1]; strain SMA UFR239, genotype ESAC): 32 mg/L
MIC ATB in combination ([2]; CFR UFR10, AF2 @ 8 μg/mL): <=0.25 μg/mL
MIC ATB in combination ([2]; CFR UFR10, AF3 @ 8 μg/mL): <0.25 mg/L
MIC ATB in combination ([2]; CFR UFR11, AF2 @ 8 μg/mL): 8 mg/L
MIC ATB in combination ([2]; CFR UFR11, AF3 @ 8 μg/mL): 4 mg/L
MIC ATB in combination ([2]; CFR UFR37, AF2 @ 8 μg/mL): 8 mg/L
MIC ATB in combination ([2]; CFR UFR37, AF3 @ 8 μg/mL): <0.25 mg/L
MIC ATB in combination ([2]; CFR UFR83, AF2 @ 8 μg/mL): >128 mg/L
MIC ATB in combination ([2]; CFR UFR83, AF3 @ 8 μg/mL): >128 mg/L
MIC ATB in combination ([2]; CFR UFR146, AF2 @ 8 μg/mL): 2 mg/L
MIC ATB in combination ([2]; CFR UFR146, AF3 @ 8 μg/mL): 1 mg/L
MIC ATB in combination ([2]; CFR UFR248, AF2 @ 8 μg/mL): <0.25 mg/L
MIC ATB in combination ([2]; CFR UFR248, AF3 @ 8 μg/mL): <0.25 mg/L
MIC ATB in combination ([2]; CFR UFR249, AF2 @ 8 μg/mL): <=0.25 μg/mL
MIC ATB in combination ([2]; CFR UFR249, AF3 @ 8 μg/mL): <0.25 mg/L
MIC ATB in combination ([2]; CFR UFR250, AF2 @ 8 μg/mL): <=0.25 μg/mL
MIC ATB in combination ([2]; CFR UFR250, AF3 @ 8 μg/mL): <0.25 mg/L
MIC ([2]; strain CFR UFR11, genotype TEM-1, OXA-1, OXA-48): 8 mg/L
MIC ([2]; strain CFR UFR37, genotype TEM-1, CTX-M-15, NDM-1): >128 mg/L
MIC ([2]; strain CFR UFR83, genotype TEM-3, AmpC): >128 mg/L
MIC ([2]; strain CFR UFR146, genotype TEM-1, KPC-2): 32 mg/L
MIC ([2]; strain CFR UFR147, genotype TEM-1, CTX-M-15, OXA-1, OXA-181, OXA-10, OXA-9, NDM-1, ArmA, dfrA12, aadA2, antibiotic alone): >128 mg/L
MIC ATB in combination ([2]; strain CFR UFR147, with AF2 @ 8 μg/mL): <0.25 mg/L
MIC ATB in combination ([2]; strain CFR UFR147, with AF3 @ 8 μg/mL): <0.25 mg/L
MIC ([2]; strain CFR UFR148, genotype TEM-1, TEM-2, CTX-M-15, NDM-1, antibiotic alone): >128 mg/L
MIC ATB in combination ([2]; strain CFR UFR148, with AF2 @ 8 μg/mL): <0.25 mg/L
MIC ATB in combination ([2]; strain CFR UFR148, with AF3 @ 8 μg/mL): <0.25 mg/L
MIC ([2]; strain CFR UFR249, genotype TEM-1, CTX-M-15): 64 mg/L
MIC ATB in combination ([2]; strain CFR UFR251, with AF2 @ 8 μg/mL): 0.5 mg/L
MIC ATB in combination ([2]; strain CFR UFR251, with AF3 @ 8 μg/mL): <0.25 mg/L
MIC ([2]; strain CFR UFR252, genotype VIM-2, antibiotic alone): 64 mg/L
MIC ATB in combination ([2]; strain CFR UFR252, with AF2 @ 8 μg/mL): 8 mg/L
MIC ATB in combination ([2]; strain CFR UFR252, with AF3 @ 8 μg/mL): 16 mg/L
MIC ([2]; strain CFR UFR253, genotype TEM-1, SHV-12, OXA-48): >128 mg/L
MIC ATB in combination ([2]; strain CFR UFR253, with AF2 @ 8 μg/mL): 8 mg/L
MIC ATB in combination ([2]; strain CFR UFR253, with AF3 @ 8 μg/mL): 4 mg/L
MIC ATB in combination ([2]; strain CFR UFR254, with AF2 @ 8 μg/mL): <0.25 mg/L
MIC ATB in combination ([2]; strain CFR UFR254, with AF3 @ 8 μg/mL): 0.5 mg/L
